Results reported in ChEMBL document CHEMBL3991601, “The target landscape of clinical kinase drugs” (Science, 2017).
The source made the active and inactive calls.

Assays:
[1] = target: Tyrosine-protein kinase CSK (Homo sapiens, UniProt P41240)
[2] = target: Casein kinase I isoform delta (Homo sapiens, UniProt P48730)
[3] = target: GTP-binding protein 4 (Homo sapiens, UniProt Q9BZE4)
[4] = target: Insulin-like growth factor 1 receptor (Homo sapiens, UniProt P08069)
[5] = target: Insulin receptor (Homo sapiens, UniProt P06213)
[6] = target: T1, Mitogen-activated protein kinase kinase kinase 6 (Homo sapiens, UniProt O95382)
T1 sequence (O95382 whole entry): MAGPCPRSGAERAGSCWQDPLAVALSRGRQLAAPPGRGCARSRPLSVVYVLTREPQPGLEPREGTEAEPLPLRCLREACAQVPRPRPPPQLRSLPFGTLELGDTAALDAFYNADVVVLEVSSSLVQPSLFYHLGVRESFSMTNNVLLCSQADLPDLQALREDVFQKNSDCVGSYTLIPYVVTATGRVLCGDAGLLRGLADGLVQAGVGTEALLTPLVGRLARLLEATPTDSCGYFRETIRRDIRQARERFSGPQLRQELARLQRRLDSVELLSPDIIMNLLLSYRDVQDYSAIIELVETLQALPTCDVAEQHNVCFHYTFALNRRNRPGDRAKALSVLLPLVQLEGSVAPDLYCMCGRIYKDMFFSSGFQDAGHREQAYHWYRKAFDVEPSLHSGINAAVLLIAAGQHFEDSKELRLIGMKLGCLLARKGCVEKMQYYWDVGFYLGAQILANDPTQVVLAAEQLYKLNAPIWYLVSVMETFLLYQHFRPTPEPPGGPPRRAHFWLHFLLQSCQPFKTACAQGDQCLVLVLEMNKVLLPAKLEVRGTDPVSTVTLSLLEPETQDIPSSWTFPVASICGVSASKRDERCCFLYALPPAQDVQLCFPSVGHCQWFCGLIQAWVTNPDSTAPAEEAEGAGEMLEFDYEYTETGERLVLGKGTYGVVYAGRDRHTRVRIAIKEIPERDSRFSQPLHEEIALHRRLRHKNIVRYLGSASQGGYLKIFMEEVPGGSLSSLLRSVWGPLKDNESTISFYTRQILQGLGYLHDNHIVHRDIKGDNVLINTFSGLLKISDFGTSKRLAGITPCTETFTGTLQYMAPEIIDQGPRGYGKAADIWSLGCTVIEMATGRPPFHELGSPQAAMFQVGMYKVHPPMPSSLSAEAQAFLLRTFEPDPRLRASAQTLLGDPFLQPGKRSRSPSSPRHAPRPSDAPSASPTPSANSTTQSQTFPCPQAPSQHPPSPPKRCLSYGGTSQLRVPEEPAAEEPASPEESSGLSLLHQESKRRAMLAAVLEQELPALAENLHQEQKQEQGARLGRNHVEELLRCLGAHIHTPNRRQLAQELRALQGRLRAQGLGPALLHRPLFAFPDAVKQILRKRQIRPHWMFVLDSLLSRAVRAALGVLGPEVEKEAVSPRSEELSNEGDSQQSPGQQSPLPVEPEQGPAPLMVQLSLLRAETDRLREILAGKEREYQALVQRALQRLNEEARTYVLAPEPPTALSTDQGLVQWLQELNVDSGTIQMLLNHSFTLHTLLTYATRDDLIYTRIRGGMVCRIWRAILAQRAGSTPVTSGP

[7] = target: Mitogen-activated protein kinase 3 (Homo sapiens, UniProt P27361)
[8] = target: Mitogen-activated protein kinase 8 (Homo sapiens, UniProt P45983)
[9] = target: T2, MAP kinase-activated protein kinase 5 (Homo sapiens, UniProt Q8IW41)
T2 sequence (Q8IW41 whole entry): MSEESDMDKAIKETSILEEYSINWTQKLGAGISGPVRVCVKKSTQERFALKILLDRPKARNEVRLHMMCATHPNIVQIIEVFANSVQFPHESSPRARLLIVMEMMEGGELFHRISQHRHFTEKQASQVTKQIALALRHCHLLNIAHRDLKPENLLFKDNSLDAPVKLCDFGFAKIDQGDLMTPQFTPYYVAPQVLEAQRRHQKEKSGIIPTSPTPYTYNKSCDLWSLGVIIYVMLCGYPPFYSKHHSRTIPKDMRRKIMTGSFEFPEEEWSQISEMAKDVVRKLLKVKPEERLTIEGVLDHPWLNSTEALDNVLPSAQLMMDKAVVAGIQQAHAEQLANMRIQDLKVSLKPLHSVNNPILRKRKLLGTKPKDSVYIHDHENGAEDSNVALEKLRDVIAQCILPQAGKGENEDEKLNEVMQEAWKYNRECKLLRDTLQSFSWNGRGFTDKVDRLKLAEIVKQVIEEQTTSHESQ

[10] = target: Protein-tyrosine kinase 2-beta (Homo sapiens, UniProt Q14289)
[11] = target: Serine/threonine-protein kinase 16 (Homo sapiens, UniProt O75716)
[12] = target: Elongation factor Tu, mitochondrial (Homo sapiens, UniProt P49411)
[13] = target: T3, Serine/threonine-protein kinase ULK3 (Homo sapiens, UniProt Q6PHR2)
T3 sequence (Q6PHR2 whole entry): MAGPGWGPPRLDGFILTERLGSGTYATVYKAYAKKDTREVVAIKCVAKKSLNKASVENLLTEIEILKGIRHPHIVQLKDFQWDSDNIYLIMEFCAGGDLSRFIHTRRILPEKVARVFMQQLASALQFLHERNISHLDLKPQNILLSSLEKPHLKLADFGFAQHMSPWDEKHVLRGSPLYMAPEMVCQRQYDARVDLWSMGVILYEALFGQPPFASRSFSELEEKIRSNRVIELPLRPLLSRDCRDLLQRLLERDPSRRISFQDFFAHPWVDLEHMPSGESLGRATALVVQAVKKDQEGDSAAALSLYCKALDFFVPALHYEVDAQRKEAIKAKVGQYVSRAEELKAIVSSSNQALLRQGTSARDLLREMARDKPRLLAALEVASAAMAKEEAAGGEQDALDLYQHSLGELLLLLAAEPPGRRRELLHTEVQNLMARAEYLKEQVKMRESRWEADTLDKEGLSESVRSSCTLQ
Also: in the data inactive means no Kd found up to 30 µM.

Sequence of Mitogen-activated protein kinase 3 (P27361 whole entry): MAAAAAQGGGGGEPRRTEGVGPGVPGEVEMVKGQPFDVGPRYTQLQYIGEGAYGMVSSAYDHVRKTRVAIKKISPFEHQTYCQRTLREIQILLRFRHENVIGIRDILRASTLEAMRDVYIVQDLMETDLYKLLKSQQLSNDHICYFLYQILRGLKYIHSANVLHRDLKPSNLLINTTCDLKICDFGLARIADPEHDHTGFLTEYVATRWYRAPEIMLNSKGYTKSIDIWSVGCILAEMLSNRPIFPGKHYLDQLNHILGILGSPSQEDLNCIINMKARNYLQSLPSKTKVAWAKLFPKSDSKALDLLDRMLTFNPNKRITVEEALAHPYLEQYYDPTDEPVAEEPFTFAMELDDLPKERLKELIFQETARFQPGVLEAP
Sequence of Casein kinase I isoform delta (P48730 whole entry, canonical isoform): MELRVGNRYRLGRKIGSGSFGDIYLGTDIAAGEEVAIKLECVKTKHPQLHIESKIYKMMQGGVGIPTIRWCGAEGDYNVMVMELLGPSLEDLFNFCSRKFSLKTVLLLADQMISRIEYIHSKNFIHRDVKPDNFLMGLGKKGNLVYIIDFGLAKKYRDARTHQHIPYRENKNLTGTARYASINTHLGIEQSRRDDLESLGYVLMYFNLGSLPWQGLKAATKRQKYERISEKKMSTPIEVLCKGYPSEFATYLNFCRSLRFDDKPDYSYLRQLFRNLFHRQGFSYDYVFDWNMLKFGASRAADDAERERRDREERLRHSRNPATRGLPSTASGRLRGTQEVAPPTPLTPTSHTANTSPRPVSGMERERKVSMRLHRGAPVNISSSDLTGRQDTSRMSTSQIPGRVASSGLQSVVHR
Sequence of Mitogen-activated protein kinase 8 (P45983 whole entry): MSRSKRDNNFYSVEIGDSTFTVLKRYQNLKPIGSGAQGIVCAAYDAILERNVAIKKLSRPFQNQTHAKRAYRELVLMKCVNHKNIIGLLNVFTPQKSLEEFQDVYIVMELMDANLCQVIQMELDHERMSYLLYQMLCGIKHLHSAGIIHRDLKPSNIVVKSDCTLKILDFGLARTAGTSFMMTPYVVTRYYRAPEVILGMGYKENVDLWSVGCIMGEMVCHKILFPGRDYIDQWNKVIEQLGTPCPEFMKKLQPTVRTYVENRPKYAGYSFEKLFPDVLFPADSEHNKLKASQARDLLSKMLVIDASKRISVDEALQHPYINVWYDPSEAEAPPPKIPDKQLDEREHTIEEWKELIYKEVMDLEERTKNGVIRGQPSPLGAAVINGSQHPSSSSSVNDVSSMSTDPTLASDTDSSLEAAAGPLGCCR
Sequence of Serine/threonine-protein kinase 16 (O75716 whole entry): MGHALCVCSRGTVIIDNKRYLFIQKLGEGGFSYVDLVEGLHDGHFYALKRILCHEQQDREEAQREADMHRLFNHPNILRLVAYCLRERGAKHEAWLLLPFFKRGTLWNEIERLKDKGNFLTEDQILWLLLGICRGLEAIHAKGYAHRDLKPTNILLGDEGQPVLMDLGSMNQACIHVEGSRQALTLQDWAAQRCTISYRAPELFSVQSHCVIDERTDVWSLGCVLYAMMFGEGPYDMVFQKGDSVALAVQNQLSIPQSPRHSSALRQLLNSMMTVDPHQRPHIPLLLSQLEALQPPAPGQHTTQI
Sequence of Insulin receptor (P06213 28-758 limits assumed): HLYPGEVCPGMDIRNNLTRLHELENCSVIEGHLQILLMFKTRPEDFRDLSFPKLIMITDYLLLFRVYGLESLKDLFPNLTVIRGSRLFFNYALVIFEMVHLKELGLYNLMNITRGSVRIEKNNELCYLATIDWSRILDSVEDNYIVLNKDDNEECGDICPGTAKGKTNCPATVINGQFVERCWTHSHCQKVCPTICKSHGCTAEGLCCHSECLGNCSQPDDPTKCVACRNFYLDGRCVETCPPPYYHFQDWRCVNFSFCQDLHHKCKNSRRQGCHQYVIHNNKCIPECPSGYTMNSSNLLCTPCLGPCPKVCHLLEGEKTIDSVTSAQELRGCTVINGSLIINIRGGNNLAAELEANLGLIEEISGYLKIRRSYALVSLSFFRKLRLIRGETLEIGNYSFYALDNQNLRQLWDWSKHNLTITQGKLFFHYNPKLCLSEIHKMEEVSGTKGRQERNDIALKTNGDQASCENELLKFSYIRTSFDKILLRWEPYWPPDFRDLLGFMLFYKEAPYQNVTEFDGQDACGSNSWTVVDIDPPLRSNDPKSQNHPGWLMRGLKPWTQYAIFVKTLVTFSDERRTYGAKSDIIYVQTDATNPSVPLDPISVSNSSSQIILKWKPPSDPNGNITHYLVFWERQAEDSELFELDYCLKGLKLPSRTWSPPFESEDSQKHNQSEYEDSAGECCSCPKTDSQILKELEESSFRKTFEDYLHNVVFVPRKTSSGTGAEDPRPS
Sequence of Insulin receptor (P06213 763-1382 limits assumed): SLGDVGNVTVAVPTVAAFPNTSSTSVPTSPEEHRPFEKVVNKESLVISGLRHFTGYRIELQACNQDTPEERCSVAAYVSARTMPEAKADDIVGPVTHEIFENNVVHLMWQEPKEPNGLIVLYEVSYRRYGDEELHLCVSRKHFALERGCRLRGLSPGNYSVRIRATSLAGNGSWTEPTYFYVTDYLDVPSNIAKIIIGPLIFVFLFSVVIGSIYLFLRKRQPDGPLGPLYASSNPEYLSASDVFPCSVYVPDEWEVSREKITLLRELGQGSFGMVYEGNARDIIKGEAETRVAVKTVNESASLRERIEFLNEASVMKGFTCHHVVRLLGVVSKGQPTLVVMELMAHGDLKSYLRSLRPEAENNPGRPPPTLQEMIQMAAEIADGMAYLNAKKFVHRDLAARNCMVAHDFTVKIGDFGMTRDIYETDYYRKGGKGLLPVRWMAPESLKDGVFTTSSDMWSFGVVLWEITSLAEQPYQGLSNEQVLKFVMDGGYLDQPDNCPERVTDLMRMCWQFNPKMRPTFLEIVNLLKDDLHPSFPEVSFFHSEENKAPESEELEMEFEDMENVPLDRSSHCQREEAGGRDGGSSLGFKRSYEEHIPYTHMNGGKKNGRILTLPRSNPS
Sequence of Insulin-like growth factor 1 receptor (P08069 31-736 limits assumed): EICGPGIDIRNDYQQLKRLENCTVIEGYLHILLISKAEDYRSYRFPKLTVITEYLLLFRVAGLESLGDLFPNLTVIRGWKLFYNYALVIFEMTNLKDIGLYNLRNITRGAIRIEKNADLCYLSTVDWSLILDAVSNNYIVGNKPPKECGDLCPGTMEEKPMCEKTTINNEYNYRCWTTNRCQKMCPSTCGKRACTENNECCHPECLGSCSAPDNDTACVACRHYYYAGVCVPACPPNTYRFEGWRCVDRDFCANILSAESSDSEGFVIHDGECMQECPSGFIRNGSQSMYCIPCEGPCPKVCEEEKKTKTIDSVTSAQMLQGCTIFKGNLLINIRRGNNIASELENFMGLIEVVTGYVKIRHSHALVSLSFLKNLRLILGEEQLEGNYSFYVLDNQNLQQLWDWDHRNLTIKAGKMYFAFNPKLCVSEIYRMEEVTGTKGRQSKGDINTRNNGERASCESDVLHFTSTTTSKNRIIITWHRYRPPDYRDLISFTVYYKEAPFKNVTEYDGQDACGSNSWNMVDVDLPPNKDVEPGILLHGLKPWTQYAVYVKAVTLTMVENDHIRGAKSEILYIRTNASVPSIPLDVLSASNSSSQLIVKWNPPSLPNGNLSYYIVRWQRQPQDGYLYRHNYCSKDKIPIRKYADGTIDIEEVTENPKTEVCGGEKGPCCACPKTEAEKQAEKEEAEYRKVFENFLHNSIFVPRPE
Sequence of Insulin-like growth factor 1 receptor (P08069 741-1367 limits assumed): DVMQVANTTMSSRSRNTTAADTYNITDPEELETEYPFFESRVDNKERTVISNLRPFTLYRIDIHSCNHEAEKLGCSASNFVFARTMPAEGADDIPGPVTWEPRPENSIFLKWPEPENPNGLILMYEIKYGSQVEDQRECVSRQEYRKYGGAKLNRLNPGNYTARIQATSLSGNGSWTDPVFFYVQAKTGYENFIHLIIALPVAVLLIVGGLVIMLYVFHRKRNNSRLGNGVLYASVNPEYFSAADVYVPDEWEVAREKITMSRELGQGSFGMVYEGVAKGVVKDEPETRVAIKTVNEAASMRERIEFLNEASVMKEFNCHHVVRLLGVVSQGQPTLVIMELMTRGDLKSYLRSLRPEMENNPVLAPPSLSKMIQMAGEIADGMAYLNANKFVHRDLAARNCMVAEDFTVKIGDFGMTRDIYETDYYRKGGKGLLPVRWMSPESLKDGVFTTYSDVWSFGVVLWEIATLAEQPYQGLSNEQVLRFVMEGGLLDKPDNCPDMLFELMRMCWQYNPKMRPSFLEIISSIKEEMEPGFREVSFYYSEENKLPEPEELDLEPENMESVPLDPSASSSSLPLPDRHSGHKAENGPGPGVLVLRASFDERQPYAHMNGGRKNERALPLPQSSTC

Kd [1]	Kd [2]	Kd [3]	Kd [4]	Kd [5]	Kd [6]	Kd [7]	Kd [8]	Kd [9]	Kd [10]	Kd [11]	Kd [12]	Kd [13]	SMILES
> 30 µM (inactive)	> 30 µM (inactive)	> 30 µM (inactive)	> 30 µM (inactive)	> 30 µM (inactive)	> 30 µM (inactive)	> 30 µM (inactive)	> 30 µM (inactive)	> 30 µM (inactive)	> 30 µM (inactive)	> 30 µM (inactive)	> 30 µM (inactive)	> 30 µM (inactive)	Cc1cc(C(=O)Nc2cc(Oc3ccc4nc(NC(=O)C5CC5)cn4n3)ccc2C)n(C)n1 [TAK-593]
> 30 µM (inactive)	> 30 µM (inactive)	> 30 µM (inactive)	> 30 µM (inactive)	> 30 µM (inactive)	> 30 µM (inactive)	> 30 µM (inactive)	> 30 µM (inactive)	> 30 µM (inactive)	> 30 µM (inactive)	> 30 µM (inactive)	> 30 µM (inactive)	> 30 µM (inactive)	Cn1c(=O)c(F)c(Nc2ccc(I)cc2F)c2c(=O)n(C[C@@H](O)CO)cnc21 [TAK-733]
> 30 µM (inactive)	> 30 µM (inactive)	> 30 µM (inactive)	> 30 µM (inactive)	> 30 µM (inactive)	> 30 µM (inactive)	> 30 µM (inactive)	> 30 µM (inactive)	> 30 µM (inactive)	> 30 µM (inactive)	> 30 µM (inactive)	> 30 µM (inactive)	> 30 µM (inactive)	CNC(=O)c1cc(COc2nnc(Nc3ccc(Cl)cc3)c3ccoc23)ccn1 [TELATINIB]
> 30 µM (inactive)	> 30 µM (inactive)	> 30 µM (inactive)	> 30 µM (inactive)	> 30 µM (inactive)	> 30 µM (inactive)	> 30 µM (inactive)	> 30 µM (inactive)	> 30 µM (inactive)	> 30 µM (inactive)	> 30 µM (inactive)	> 30 µM (inactive)	> 30 µM (inactive)	Cc1cc(-c2cc(OC(=O)c3ccccc3)ccc2Cl)cc2nnc(Nc3ccc(OCCN4CCCC4)cc3)nc12 [TG100-801]
> 30 µM (inactive)	> 30 µM (inactive)	> 30 µM (inactive)	> 30 µM (inactive)	> 30 µM (inactive)	> 30 µM (inactive)	> 30 µM (inactive)	> 30 µM (inactive)	> 30 µM (inactive)	> 30 µM (inactive)	> 30 µM (inactive)	> 30 µM (inactive)	> 30 µM (inactive)	C[C@@H]1COC(Nc2ccc3ncnc(Nc4ccc(OCc5nccs5)c(Cl)c4)c3c2)=N1 [VARLITINIB]
> 30 µM (inactive)	> 30 µM (inactive)	> 30 µM (inactive)	> 30 µM (inactive)	> 30 µM (inactive)	> 30 µM (inactive)	> 30 µM (inactive)	> 30 µM (inactive)	> 30 µM (inactive)	> 30 µM (inactive)	> 30 µM (inactive)	> 30 µM (inactive)	> 30 µM (inactive)	CNC(=O)c1cccc(-c2ccc3c(N4CCOC[C@@H]4C)nc(N4CCOC[C@@H]4C)nc3n2)c1 [VISTUSERTIB]
> 30 µM (inactive)	> 30 µM (inactive)	> 30 µM (inactive)	> 30 µM (inactive)	> 30 µM (inactive)	> 30 µM (inactive)	> 30 µM (inactive)	> 30 µM (inactive)	> 30 µM (inactive)	> 30 µM (inactive)	> 30 µM (inactive)	> 30 µM (inactive)	> 30 µM (inactive)	NC(=O)c1ccc(N(C(N)=O)c2c(F)cccc2F)nc1-c1ccc(F)cc1F [VX-702]
> 30 µM (inactive)	> 30 µM (inactive)	> 30 µM (inactive)	> 30 µM (inactive)	> 30 µM (inactive)	> 30 µM (inactive)	> 30 µM (inactive)	> 30 µM (inactive)	> 30 µM (inactive)	> 30 µM (inactive)	> 30 µM (inactive)	> 30 µM (inactive)	> 30 µM (inactive)	COc1cc2ncnc(Nc3ccc(O)cc3)c2cc1OC [WHI-P131]
